The test addresses T1, HpPutP (Helicobacter pylori, UniProt B6JPE8).
T1 construct: gene putP; full-length, C-terminal 6His tag (FLAG-6His for Western blots), expressed in E. coli WG170 (PutP-A-), intact cells
Description: inhibition of […]-L-proline uptake into E. coli WG170 expressing HpPutP, Dixon plot. The format is cell-based.

T1 sequence (B6JPE8 1-496): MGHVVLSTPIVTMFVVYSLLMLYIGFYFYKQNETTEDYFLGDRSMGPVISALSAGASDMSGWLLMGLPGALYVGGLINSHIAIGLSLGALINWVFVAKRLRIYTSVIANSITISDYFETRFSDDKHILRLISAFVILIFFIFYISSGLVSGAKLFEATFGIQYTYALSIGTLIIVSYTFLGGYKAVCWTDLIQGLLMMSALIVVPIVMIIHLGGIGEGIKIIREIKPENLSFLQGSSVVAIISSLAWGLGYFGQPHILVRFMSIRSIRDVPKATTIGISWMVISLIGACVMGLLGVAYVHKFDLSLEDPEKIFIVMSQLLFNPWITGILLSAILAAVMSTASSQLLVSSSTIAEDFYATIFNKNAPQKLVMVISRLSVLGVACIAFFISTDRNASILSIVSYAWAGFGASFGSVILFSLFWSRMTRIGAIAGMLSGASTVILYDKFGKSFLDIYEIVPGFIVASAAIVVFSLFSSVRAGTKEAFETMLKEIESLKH

In the case of `O=C(O)C1C=CCN1` (racemic) [DHP, 3,4-dehydro-D,L-proline], the Ki amounted to 5.7 ± 0.9 µM.
The compound `O=C(O)[C@@H]1CCN1` [AZC, L-azetidine-2-carboxylic acid] displayed a Ki of 44.2 ± 6.3 µM.

The Ki is the equilibrium dissociation constant of an inhibitor or competing ligand from its target. Higher therefore signals lower affinity.

For the origin of these results see publication PMC3866251, “The Sodium/Proline Transporter PutP of Helicobacter pylori” (PLoS ONE, 2013).
